Series [1] has as its system Staphylococcus aureus. Nature of the series: Antibacterial activity against clinical isolate Staphylococcus aureus harbouring cfr gene assessed as inhibition of bacterial growth measured after 24 hrs by MH broth based assay. In kind it is functional.
The nature of series [2]: Hemolytic activity in rabbit RBC at 200 ug/ml incubated for 5 mins by absorbance based analysis. In kind it is toxicity, cell-based, Oryctolagus cuniculus, Erythrocyte. The settings on record: rabbit red blood cells (erythrocytes), at 200 µg/mL, read-out: Activity.
For series [3], the system named is Staphylococcus aureus. As to the kind of experiment: Antibacterial activity against clinical isolate multi-drug resistant Staphylococcus aureus sal assessed as reduction in log10 CFU at 1 times of MIC measured after 8 hrs by time-kill assay. The series is classed as functional, organism-based.
Series [4] has as its system Staphylococcus aureus. Nature of the series: Antibacterial activity against multi-drug resistant Staphylococcus aureus sa1 infected in ip dosed BABL/C mouse assessed as survival rate measured upto 7 days. The following applies: sa1, 168 h, time <= 7 day. In kind it is functional.
For the next series, the system named is Streptococcus suis. Nature of the series: Antibacterial activity against clinical isolate Streptococcus suis harbouring IsaE and ErmA gene assessed as inhibition of bacterial growth measured after 24 hrs by MH broth based assay. The series is classed as functional.
The next series concerns Bacillus subtilis. As to the kind of experiment: Antibacterial activity against Bacillus subtilis ATCC 6633 assessed as inhibition of bacterial growth measured after 24 hrs by MH broth based assay. The series is classed as functional.
Series [5] deals with Staphylococcus epidermidis. Nature of the series: Antibacterial activity against methicillin-resistant Staphylococcus epidermidis ATCC 51625 assessed as inhibition of bacterial growth measured after 24 hrs by MH broth based assay. The series is classed as functional.
Series [6] deals with Staphylococcus aureus. Nature of the series: Antibacterial activity against clinical isolate multi-drug resistant Staphylococcus aureus sal assessed as inhibition of bacterial growth. The series is classed as functional.
Series [7] relates to Staphylococcus aureus. As to the kind of experiment: Antibacterial activity against multi-drug resistant Staphylococcus aureus sa1 infected in BABL/C mouse assessed as survival rate at 10 mg/kg, ip measured upto 7 days. The following applies: sa1, 168 h, time <= 7 day. The series is classed as functional.
Series [8] has as its system Staphylococcus aureus. As to the kind of experiment: Antibacterial activity against Staphylococcus aureus ATCC 29213 assessed as induction of cell membrane perforation at 4 times of MIC by SEM analysis. The series is classed as functional, organism-based.
A further series relates to Escherichia coli. As to the kind of experiment: Antibacterial activity against Escherichia coli MG1655 assessed as inhibition of bacterial growth measured after 24 hrs by MH broth based assay. The series is classed as functional.
Series [9] concerns Staphylococcus aureus. Nature of the series: Antibacterial activity against clinical isolate Staphylococcus aureus harbouring tet38 gene assessed as inhibition of bacterial growth measured after 24 hrs by MH broth based assay. In kind it is functional.
Series [10] deals with Streptococcus pneumoniae. Nature of the series: Antibacterial activity against Streptococcus pneumoniae ATCC 49619 assessed as inhibition of bacterial growth measured after 24 hrs by MH broth based assay. In kind it is functional.
In series [11] the test system is Staphylococcus aureus. As to the kind of experiment: Antibacterial activity against 4 times of MIC treated methicillin-resistant Staphylococcus aureus […] assessed as post-antibiotic sub-MIC effect by measuring time required for increase in log10 CFU/ml of bacteria at 0.25 to 0.5 times of MIC incubated for 1 hr by MH broth based assay. In kind it is functional.

The subject of series [12] is Staphylococcus aureus. Nature of the series: Antibacterial activity against clinical isolate Staphylococcus aureus harbouring IsaE gene assessed as inhibition of bacterial growth measured after 24 hrs by MH broth based assay. The series is classed as functional.
The subject of another series is Enterococcus. Nature of the series: Antibacterial activity against vancomycin-resistant Enterococcus ATCC 700221 assessed as inhibition of bacterial growth measured after 24 hrs by MH broth based assay. The series is classed as functional.
Series [13] deals with Staphylococcus aureus. As to the kind of experiment: Antibacterial activity against methicillin-resistant Staphylococcus aureus infected in rabbit RBC assessed as reduction in haemolysis by measuring haemoglobin level at 0.25 to 1 times of MIC by absorbance based analysis. In kind it is functional, organism-based. The settings on record: Erythrocyte.
The subject of series [14] is Staphylococcus aureus. Nature of the series: Antibacterial activity against methicillin-resistant Staphylococcus aureus […] assessed as post antibacterial effect by measuring time required for increase in log10 CFU/ml of bacteria at 2 times of MIC incubated for 1 hr by MH broth based assay. In kind it is functional.
For the next series, the system named is HEK293. Nature of the series: Cytotoxicity against HEK293 cells assessed as reduction in cell viability at 7.5 to 1000 ug/ml incubated for 6 hrs by CCK-8 assay. The following applies: human, hek293, 6 h, dose 7.5-1000 µg/ml. The series is classed as toxicity, cell-based. A general note: Tetrazolium dyes change colour on reduction, which living cells bring about.

A further series has as its system Klebsiella pneumoniae. As to the kind of experiment: Antibacterial activity against clinical isolate Klebsiella pneumoniae harbouring blaKpc gene assessed as inhibition of bacterial growth measured after 24 hrs by MH broth based assay. The series is classed as functional.
In the next series the test system is Proteus. As to the kind of experiment: Antibacterial activity against Proteus CMCC (B) 49027 assessed as inhibition of bacterial growth measured after 24 hrs by MH broth based assay. The series is classed as functional.
Series [15] relates to Streptococcus pneumoniae. As to the kind of experiment: Antibacterial activity against clinical isolate Streptococcus pneumoniae harbouring ermB gene assessed as inhibition of bacterial growth measured after 24 hrs by MH broth based assay. The series is classed as functional.

Molecules are shown by their SMILES. Activity calls are given as the source filed them.

As for `C=C[C@]1(C)C[C@@H](OC(=O)CSc2cc[n+](CCCCCCC)cc2)[C@]2(C)[C@H](C)CC[C@]3(CCC(=O)[C@H]32)[C@@H](C)[C@@H]1O.[I-]`, the MIC in the series with Staphylococcus aureus [1] was 8 µg/mL; in the series on Streptococcus suis, 16 µg/mL; in the series on Bacillus subtilis it was 4 µg/mL; in series [5] it was 0.063 µg/mL; with Staphylococcus aureus [6] it was 8 µg/mL; in the series with Escherichia coli, 32 µg/mL. Moreover, the MIC is 0.125 µg/mL in the series on Staphylococcus aureus [9]; less than 0.031 µg/mL with Streptococcus pneumoniae [10]; 8 µg/mL in the series with Staphylococcus aureus [12]; 4 µg/mL with Enterococcus; 4 µg/mL in the series on Klebsiella pneumoniae; 32 µg/mL in the series with Proteus. Also, in the series with Streptococcus pneumoniae [15], the MIC stood at 0.5 µg/mL. Also, in [2], the hemolysis at 5 min, 200 ug/ml is less than 14%. Besides, the result in the series on Staphylococcus aureus [3], in the series with Staphylococcus aureus [8] and in the series with Staphylococcus aureus [13] was Active. In the series on Staphylococcus aureus [4], the ED50 was determined as 5.68 mg/kg. Besides, the survival at 10 mg/kg in the series with Staphylococcus aureus [7] was 66%. Moreover, the Time is 2.75 h in the series on Staphylococcus aureus [11] and 2.31 h in the series with Staphylococcus aureus [14]. For the same compound, the Activity entry in the series on HEK293 was “Non-Toxic”.

One may read the MIC as the smallest concentration in the dilution series that meets the test's criterion for growth inhibition. The ED50 is the midpoint of the dose-response relation.
